What was measured:
recombinant E. coli LpxA = target: T1, recombinant E. coli LpxA (Escherichia coli, UniProt P0A722); assay: LpxA assay: acyl-UDP-GlcNAc formation from UDP-[3H]GlcNAc, TLC; format: biochemical; conditions: 5 mM compound; FIG. 8
T1 construct: 6xHis (C); made in house; host or cells: E. coli BL21 (pET23b)
From the text: The lpxA gene was amplified from an E. coli genomic library and inserted into a pET23b vector using standard recombinant DNA methodology. The 5′ oligonucleotide for amplification of the LpxA open reading frame was 5′-[…]-3′ (SEQ ID NO. 1) and contains a BamHI restriction enzyme site upstream of the LpxA ATG start codon and the 3′ oligonucleotide was 5′-[…]-3′ (SEQ ID NO. 2) and contains a XhoI restriction enzyme site downstream of the final codon of the LpxA open reading frame. Primers were custom synthesized. The primers were designed such that digestion of the amplification product would result in addition of a C-terminal 6×-His tag in frame with the LpxA open reading frame. Specifically, E. coli genomic DNA was isolated and an amplification reaction was carried out as follows: 33 μl water, 5 μl 10× reaction buffer, 1.5 μl of 50 mM magnesium sulfate, 3 μl of 10 mM dNTPs, 3 μl of a 50 μM solution of the 5′ LpxA primer, 3 μl of a 50 μM solution of the 3′ LpxA primer, 0.5 μl of E. coli genomic DNA solution, and 1 μl of polymerase. The reaction conditions were as follows: 94° C. for 2 minutes; followed by 30 cycles of 94° C. for 30 seconds, 50° C. for 30 seconds, 68° C. for 1.5 minutes, followed by an extension at 68° C. for 7 minutes. The resulting LpxA product was separated from other DNA on a 0.8% agarose gel and isolated from the gel. The LpxA open reading frame was cloned into a topoisomerase I-activated vector and transformed into E. coli. […] The newly synthesized plasmid containing the BamHI- and XhoI-flanked LpxA open reading frame and plasmid pET23a were digested with BamHI and XhoI at 37° C. for 2 hours, DNA was separated by agarose gel electrophoresis, isolated from the gel, and ligated. Ligation reactions were transformed into chemically competent E. coli and plasmid DNA was isolated. Restriction mapping was performed to determine which plasmids contained the LpxA open reading frame. To remove the T7 epitope coding sequence from the 5′end of the LpxA open reading frame, the pET23a plasmid containing the LpxA open reading frame was digested with the restriction enzymes BamHI and XhoI and a pET23b plasmid was digested with BglII and XhoI, DNA was separated by agarose gel electrophoresis, isolated from the gel, and ligated. Ligation reactions were transformed into chemically competent E. coli and plasmid DNA was isolated. Restriction mapping was performed to assess plasmids containing the LpxA open reading frame.
A 5 ml culture of E. Coli BL21 cells expressing the LpxA-6×His plasmid was grown overnight at 37° C. in LB medium containing 50 μg/ml ampicillin and 34 μg/ml chloramphenicol, then subcultured into 500 ml of the same medium and grown at 37° C. until A600=0.6. LpxA expression was induced by addition of 0.5 mM IPTG for three hours. The cells were centrifuged at 7 000×g for 10 minutes at 4° C. and lysed using a mild, nonionic detergent. The soluble fraction containing LpxA was added to 1 ml of nickel affinity resin in a 15 ml Falcon tube; the resin was washed extensively with extraction/wash buffer (50 mM Na-phosphate (pH 7.0) and 300 mM NaCl) prior to use. This mixture was incubated on a rotating platform at low speed for 20 minutes at room temperature. The resin was centrifuged at 1000 rpm in a bench top centrifuge for 2 min, washed twice (10 min each) with 10 ml of extraction/wash buffer, resuspended in 10 ml of extraction/wash buffer, and transferred to a 10 ml polypropylene disposable protein purification column. The column was eluted with 5 ml of 50 mM Na-phosphate (pH 7.0) containing 300 mM NaCl and 150 mM imidazole, collected in 1 ml fractions. The eluate was analysed by SDS-PAGE and was visualised using a protein stain (FIG. 7 inset).
Recombinant Vibrio harveyi acyl carrier protein was prepared from a GST fusion protein as described previously (Flaman et al., 2001). […]

[1] = test system: LPS synthesis in E. coli strain D22; assay: In vivo LPS synthesis: [3H]galactose incorporation into acid-precipitable material; format: cell-based
Experimental: LpxA catalyzes the first step in the synthesis of lipid A (the hydrophobic anchor of LPS), which is essential for the growth and pathogenesis of many gram-negative bacteria. The inhibition of LpxA activity would therefore result in decreased synthesis of LPS. To measure the synthesis of LPS in vivo, the incorporation of radiolabelled galactose into acid-precipitable material was determined. The E. coli strain used for these studies was D22 (obtained from the E. coli Genetic Stock Center), which contains a mutation in the LpxC gene (lpxC101; Normark et al., 1969, J Bacteriol 97, 1334). Strains harbouring this mutation have an increased susceptibility to antibiotics, in addition to producing approximately 30% less LPS (Grundstrom et al., 1980, J Bacteriol 144, 884.). Bacteria were grown in Luria broth to early-log phase, at which point, 500 μl was transferred to a culture tube containing 1 μl of [^3H]galactose (final concentration, 0.2 mM, 20 μCi/μmol) and mixed. Cultures were incubated at 30° C. for 75 minutes with shaking at 220 rpm. Incorporation was terminated by adding 400 μl of labelled culture to 44.4 μl of 100% trichloroacetic acid (TCA, 10% final concentration) in a 1.5 ml microcentrifuge tube. Tubes were vortexed, incubated on ice for 30 minutes, then centrifuged at 14 000 rpm for 5 minutes at room temperature. The pellet was rinsed twice with 1 ml of ice-cold 10% TCA, resuspended in 50 μl of formic acid, and transferred to a scintillation vial for counting.
Compounds to be tested were dissolved in DMSO and added to the bacterial culture prior to labelling with galactose, and LPS synthesis was determined as described previously. The final concentration of DMSO (1%, v/v) had minimal effect on LPS synthesis.

T1 sequence (P0A722 whole entry): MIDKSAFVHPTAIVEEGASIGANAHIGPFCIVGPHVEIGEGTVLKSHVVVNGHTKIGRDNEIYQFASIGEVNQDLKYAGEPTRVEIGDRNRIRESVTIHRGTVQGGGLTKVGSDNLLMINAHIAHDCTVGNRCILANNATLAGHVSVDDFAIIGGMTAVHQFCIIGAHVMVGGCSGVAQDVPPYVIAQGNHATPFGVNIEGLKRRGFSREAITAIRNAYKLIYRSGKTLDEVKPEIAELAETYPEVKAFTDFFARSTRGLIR

Compound	inhibition at 5000 µM (recombinant E. coli LpxA)	decrease of LPS synthesis ([1]; 0.1 mM, FIG. 10B)	decrease of LPS synthesis ([1]; 1 mM, FIG. 10A)
COc1ccc(-c2cc(-c3nnn[nH]3)c(-c3ccc(OC)cc3)s2)cc1 [DNM-131D, 5-(2,5-Bis(4-methoxyphenyl)thiophen-3-yl)-1H-tetrazole]	> 80%	~50%	–
CCOC(=O)c1cccc(-c2cc(-c3nnn[nH]3)c(-c3cccc(C(=O)OCC)c3)s2)c1 [DNM-131I, 5-(2,5-Bis(3-(ethoxylcarbonyl)phenyl)thiophen-3-yl)-1H-tetrazole]	> 80%	–	~80%
